Counter-ions that a name gives are not always drawn.
Legend:
[1] = test system: human HDAC (Hela cells nuclear extract); assay: HDAC activity screening, Hela nuclear extract, Boc-Lys(Ac)-AMC substrate; format: biochemical; conditions: Hela nuclear extract; for IC50: read-out: IC50 (50% HDAC inhibitory concentration), Table 2; for HDAC % Inhibition (1 μM): 1 μM compound; for HDAC % Inhibition (10 μM): 10 μM compound
Description: To study the human HDAC inhibition the in-house 96 well plate assay have been established using fluorescent substrate (Boc-Lys (Ac)-AMC Substrate). Hela cells nuclear extract have been used as enzyme source.
Assay was performed in 96-well black microplate and total volume of the assay was 100 μL. Hela nuclear extract was diluted HDAC assay buffer (final concentration of 3.0 μg/mL). Enzyme mixture was made of 10 μL of diluted enzyme and 30 μL of HDAC buffer. 40 μl of enzyme mixture followed by 10 μL of test compound (final concentration from 0.01 to 10 μM) or vehicle (control) was added to each well. The plate was pre-incubated at 37° C. for 10 minutes. The HDAC reaction was started by adding 50 μl of HDAC substrate Boc-Lys (Ac)-AMC (Anaspec, Inc Fremont, Calif., USA). The plate was incubated at 37° C. for 45 minutes. The reaction was stopped by adding 50 μL of Trypsin stop solution and plate further incubated at 37° C. for 15 minutes. Measuring the fluorescence at excitation wavelength of 360 nm and emission wavelength of 460 nm monitored the release of AMC. Buffer alone and substrate alone served as blank.

[2] = Oral bioavailability and pharmacokinetics studies; format: in vivo, male Balb/c mice
Description: The studies were performed to determine the oral bioavailability and pharmacokinetics of test compounds in male Balb/c mice. Study was performed after obtaining the Institutional Animal Ethics Committee (IAEC) permission. Mice aged 5 to 6 weeks weighing around 25 to 30 g were used for this study. The animals were fasted overnight with free access to water. Animals were administered test compounds by oral route at a 50 mg/kg body weight (formulation: 0.5% methylcellulose in water and 0.1% tween 80. Dose volume 10 ml/kg b.w.) or intravenous route at a dose 10 mg/kg b.w. […] (formulation: 0.9% saline. Dose volume 10 ml/kg b.w.) Blood samples were collected at various time points during the next 24 hours post dose. The blood samples were centrifuged at 3000 g for 5 minutes at 4° C. and the corresponding plasma samples were collected in clean pre-labeled tubes. Then, each sample was subjected to a suitable extraction method and analysed by LC-MS/MS (API 3200 LC-MS/MS system). Data was analyzed using WinNonlin version 5.2 (Pharsight).

A549 = assay: Cell proliferation assay (MTT); format: cell-based; conditions: Homo sapiens, A549; Table 1; MTT, 48 hours; read-out: Cell growth inhibition (GI50 in μM) A549
Description: (§1) Cells were seeded in a 96-well cell culture plates at a concentration of 10,000 cells per well and incubated at 37° C. in CO2 incubator.
(§2) Twenty-four hours later cells were treated with different concentrations (100, 10, 1, 0.1, and 0.01 μM) of compound dissolved in DMSO and incubated for 48 hours. For To measurement, 24 hours after seeding the cells, 20 μL of 3-(4.5-dimethyl-2- thiazolyl)-2,5-diphenyl-2H-tetrazolium (MTT) solution per well was added to the T0 plate and incubated for 3 hours at 37° C. in a CO2 incubator.
(§3) The plate containing cells and test compounds was treated similarly after 48 hours of incubation. After 3 hours of MTT addition, well contents were aspirated carefully followed by addition of 100 μL DMSO per well. Plates were agitated to ensure dissolution of the formazan crystals in DMSO and absorbance was read at 570 nm (A570). […] From the percentage growths a dose response curve was generated and GI50 values were interpolated from the growth curves.

PA-1 = assay: Cell proliferation assay (MTT); format: cell-based; conditions: Homo sapiens, Table 1, MTT, 48 hours, read-out: Cell growth inhibition (GI50 in μM) PA-1
Description: as §1, §2, §3

PC-3 = assay: Cell proliferation assay (MTT); format: cell-based; conditions: Homo sapiens, PC-3; Table 1; MTT, 48 hours; read-out: Cell growth inhibition (GI50 in μM) PC-3
Description: as §1, §2, §3

[3] = plasma, oral 50 mg/kg, male Balb/c mouse

Row | IC50 [1] [nM] | times higher AUC ([2]; compared with SAHA, oral) [times] | times longer terminal half life ([2]; compared with SAHA, oral) [times] | bioavailability ([2]; plasma, oral 50 mg/kg vs intravenous, male Balb/c mouse) [%] | AUC(0-t) [2, 3] [ng·h/mL] | Cmax [2, 3] [ng/mL] | Tmax [2, 3] [min] | half-life [2, 3] [h] | GI50 (A549) [µM] | GI50 (PC-3) [µM] | Compound | HDAC % Inhibition (1 μM) [1] [%] | HDAC % Inhibition (10 μM) [1] [%] | GI50 (PA-1) [µM]
1 | 18.6 | 9 | 2 | – | – | – | – | – | – | – | CCN(CC)CCc1ccc(-c2cn(Cc3ccc(C(=O)NO)cc3)nn2)cc1 [Example 11, 4-{4-[4-(2-Diethylamino-ethyl)-phenyl]-[1,2,3]triazol-1-ylmethyl}-N-hydroxy-benzamide] | – | – | –
2 | 19.1 | – | – | 68 ± 6 | 3340 | 3360 | 4.8 | 2 | – | – | CCN(CC)Cc1ccc(-c2cn(Cc3ccc(C(=O)NO)cc3)nn2)c(F)c1 [Example 13, 4-[4-(4-Diethylaminomethyl-2-fluoro-phenyl)-[1,2,3]triazol-1-ylmethyl]-N-hydroxy-benzamide] | – | – | –
3 | 1 | – | – | – | – | – | – | – | 0.9 ± 0.3 | 9.4 ± 6.2 | O=C(/C=C/c1cccc(Cn2cc(-c3ccc(CN4CCCC4)cc3)nn2)c1)NO [Example 26, N-Hydroxy-3-{3-[4-(4-pyrrolidin-1-ylmethyl-phenyl)-[1,2,3]triazol-1-ylmethyl]-phenyl}-acrylamide hydrochloride] | 99 | 99 | 0.03
4 | 1 | – | – | – | – | – | – | – | 0.4 ± 0.2 | 4.5 ± 5.7 | CN(C)Cc1ccc(-c2cn(Cc3cccc(/C=C/C(=O)NO)c3)nn2)cc1 [Example 27, 3-{3-[4-(4-Dimethylaminomethyl-phenyl)-[1,2,3]triazol-1-ylmethyl]-phenyl}-N-hydroxy-acrylamide hydrochloride] | 99 | 99 | 0.02

— patent US20120101099A1, “HISTONE DEACETYLASE INHIBITORS” (ANTHEM BIOSCIENCES PRIVATE LIMITED, priority 2009, published 2012)
